Experimental findings from the OligoGym collection are described below.

Values joined by “and” are separate entries in the source; they are usually repeats but may differ in a detail not shown here. Equal values may be shown once. HELM strings list units from the 5' end as sugar, base in round brackets, then linkage (d deoxyribose, r ribose, m 2'-O-methyl, p phosphodiester). Methylation of C is not given here. [moe] = 2'-O-(2-methoxyethyl) (MOE); [cEt] = constrained ethyl (cEt); [sp] = phosphorothioate linkage

The series addresses HBV. The conditions noted are these: ASO.

With “RNA1{[moe](G)[sp].[moe](A)[sp].[moe](G)[sp].[moe](T)[sp].d(T)[sp].d(C)[sp].d(C)[sp].d(G)[sp].d(C)[sp].d(A)[sp].d(G)[sp].d(T)[sp].d(A)[sp].[moe](T)[sp].[moe](G)[sp].[moe](G)[sp].[moe](A)}$$$$V2.0”, the target mRNA inhibition (HepG2, 0.07 µM) is 62% and 51%.

On to “RNA1{[moe](G)[sp].[moe](T)[sp].[moe](G)[sp].[moe](A)[sp].[moe](A)[sp].d(G)[sp].d(C)[sp].d(G)[sp].d(A)[sp].d(A)[sp].d(G)[sp].d(T)[sp].d(G)[sp].d(C)[sp].[moe](A)[sp].[moe](C)}$$$$V2.0”, for which the target mRNA inhibition (HepG2, 0.07 µM) was 70% and 58%.

As to “RNA1{[moe](C)[sp].[moe](C)[sp].[moe](A)[sp].[moe](C)[sp].[moe](T)[sp].d(G)[sp].d(A)[sp].d(A)[sp].d(C)[sp].d(A)[sp].d(A)[sp].d(A)[sp].d(T)[sp].d(G)[sp].[moe](G)[sp].[moe](C)}$$$$V2.0”, under “HepG2, 0.07 µM”, the target mRNA inhibition was 55% and 44%.

On to “RNA1{[moe](G)[sp].[moe](A)[sp].[moe](A)[sp].[moe](G)[sp].[moe](C)[sp].d(G)[sp].d(A)[sp].d(A)[sp].d(G)[sp].d(T)[sp].d(G)[sp].d(C)[sp].d(A)[sp].d(C)[sp].[moe](A)[sp].[moe](C)}$$$$V2.0”, for which, where the note is “HepG2, 0.07 µM”, the target mRNA inhibition is 70% and 67%.

As for “RNA1{[moe](A)[sp].[moe](G)[sp].d(G)[sp].d(C)[sp].d(A)[sp].d(T)[sp].d(A)[sp].d(G)[sp].d(C)[sp].d(A)[sp].d(G)[sp].[moe](C)[sp].[moe](A)[sp].[moe](G)[sp].[moe](G)[sp].[moe](A)}$$$$V2.0”, the target mRNA inhibition (HepG2, 0.07 µM) was 57% and 51%.

Take “RNA1{[moe](G)[sp].[cEt](A)[sp].d(G)[sp].d(A)[sp].d(G)[sp].d(A)[sp].d(A)[sp].d(G)[sp].d(T)[sp].d(C)[sp].d(C)[sp].d(A)[sp].[cEt](C)[sp].[moe](C)[sp].[cEt](A)[sp].[moe](C)}$$$$V2.0”: the target mRNA inhibition (HepG2, 0.07 µM) is 42% and 56%.

For “RNA1{[moe](T)[sp].[moe](G)[sp].[moe](G)[sp].[moe](A)[sp].d(G)[sp].d(C)[sp].d(C)[sp].d(A)[sp].d(C)[sp].d(C)[sp].d(A)[sp].d(G)[sp].d(C)[sp].[moe](A)[sp].[moe](G)[sp].[moe](G)}$$$$V2.0”, the target mRNA inhibition (HepG2, 0.07 µM) was 47% and 35%.

On to “RNA1{[moe](G)[sp].[moe](G)[sp].[moe](C)[sp].[moe](A)[sp].d(T)[sp].d(A)[sp].d(G)[sp].d(C)[sp].d(A)[sp].d(G)[sp].d(C)[sp].d(A)[sp].d(G)[sp].[moe](G)[sp].[moe](A)[sp].[moe](T)[sp].[moe](G)}$$$$V2.0”, for which the target mRNA inhibition (HepG2, 0.07 µM) is 57% and 53%.

“RNA1{[moe](T)[sp].[moe](T)[sp].[moe](C)[sp].[moe](C)[sp].d(G)[sp].d(C)[sp].d(A)[sp].d(G)[sp].d(T)[sp].d(A)[sp].d(T)[sp].d(G)[sp].d(G)[sp].[moe](A)[sp].[moe](T)[sp].[moe](C)[sp].[moe](G)}$$$$V2.0”: where the note is “HepG2, 0.07 µM”, the target mRNA inhibition is 56% and 38%.

Take “RNA1{[moe](A)[sp].[moe](G)[sp].[moe](G)[sp].d(T)[sp].d(G)[sp].d(A)[sp].d(A)[sp].d(G)[sp].d(C)[sp].d(G)[sp].d(A)[sp].d(A)[sp].[moe](G)[sp].[moe](T)[sp].[moe](G)[sp].[moe](C)[sp].[moe](A)}$$$$V2.0”: for the setting “HepG2, 0.07 µM”, the target mRNA inhibition was 77% and 71%.

“RNA1{[moe](A)[sp].[cEt](G)[sp].[cEt](A)[sp].d(T)[sp].d(G)[sp].d(A)[sp].d(G)[sp].d(G)[sp].d(C)[sp].d(A)[sp].d(T)[sp].d(A)[sp].d(G)[sp].[cEt](C)[sp].[cEt](A)[sp].[moe](G)}$$$$V2.0”: the target mRNA inhibition (HepG2, 0.07 µM) is 59% and 56%.

Regarding “RNA1{[moe](A)[sp].[moe](A)[sp].[moe](T)[sp].[moe](T)[sp].[moe](T)[sp].d(A)[sp].d(T)[sp].d(G)[sp].d(C)[sp].d(C)[sp].d(T)[sp].d(A)[sp].d(C)[sp].d(A)[sp].[moe](G)[sp].[moe](C)[sp].[moe](C)}$$$$V2.0”, the target mRNA inhibition (HepG2, 0.07 µM) was 63% and 50%.

Take “RNA1{[moe](T)[sp].[moe](G)[sp].[moe](A)[sp].d(G)[sp].d(A)[sp].d(G)[sp].d(A)[sp].d(A)[sp].d(G)[sp].d(T)[sp].d(C)[sp].d(C)[sp].d(A)[sp].[cEt](C)[sp].[cEt](C)[sp].[cEt](A)}$$$$V2.0”: the target mRNA inhibition (HepG2, 0.07 µM) was 35% and 41%.

As for “RNA1{[moe](A)[sp].[cEt](A)[sp].[moe](G)[sp].[cEt](C)[sp].d(G)[sp].[cEt](A)[sp].d(A)[sp].d(G)[sp].d(T)[sp].d(G)[sp].d(C)[sp].d(A)[sp].d(C)[sp].[moe](A)[sp].[moe](C)[sp].[moe](G)[sp].[moe](G)}$$$$V2.0”, the target mRNA inhibition was determined as 31% (HepG2, 0.009375 µM); 28% (HepG2, 0.01875 µM); 48% (HepG2, 0.0375 µM); 61% (HepG2, 0.075 µM); 80% (HepG2, 0.15 µM); 90% (HepG2, 0.3 µM).

Take “RNA1{[moe](A)[sp].[moe](G)[sp].[moe](T)[sp].d(T)[sp].d(C)[sp].d(C)[sp].d(G)[sp].d(C)[sp].d(A)[sp].d(G)[sp].d(T)[sp].d(A)[sp].[moe](T)[sp].[moe](G)[sp].[moe](G)[sp].[moe](A)[sp].[moe](T)}$$$$V2.0”: the target mRNA inhibition (HepG2, 0.07 µM) is 60% and 64%.

Regarding “RNA1{[moe](G)[sp].[moe](A)[sp].[moe](A)[sp].[moe](C)[sp].[moe](C)[sp].[moe](A)[sp].d(C)[sp].d(T)[sp].d(G)[sp].d(A)[sp].d(A)[sp].d(C)[sp].d(A)[sp].d(A)[sp].d(A)[sp].[moe](T)[sp].[moe](G)}$$$$V2.0”, under “HepG2, 0.07 µM”, the target mRNA inhibition was 53% and 43%.

In the case of “RNA1{[moe](C)[sp].[moe](A)[sp].[moe](C)[sp].[moe](T)[sp].d(A)[sp].d(G)[sp].d(T)[sp].d(A)[sp].d(A)[sp].d(A)[sp].d(C)[sp].d(T)[sp].d(G)[sp].[moe](A)[sp].[moe](G)[sp].[moe](C)}$$$$V2.0”, where the note is “HepG2, 0.07 µM”, the target mRNA inhibition was 56% and 50%.

For “RNA1{[moe](G)[sp].[cEt](T)[sp].d(G)[sp].d(A)[sp].d(A)[sp].d(G)[sp].d(C)[sp].d(G)[sp].d(A)[sp].d(A)[sp].d(G)[sp].d(T)[sp].[cEt](G)[sp].[moe](C)[sp].[cEt](A)[sp].[moe](C)}$$$$V2.0”, the target mRNA inhibition (HepG2, 0.0092593 µM) was 18%; the target mRNA inhibition (HepG2, 0.0277778 µM) came out at 36%; the target mRNA inhibition (HepG2, 0.07 µM) was 81% and 80%; the target mRNA inhibition (HepG2, 0.0833333 µM) is 75%; the target mRNA inhibition (HepG2, 0.25 µM) amounted to 88%.

Turning to “RNA1{[moe](T)[sp].[moe](T)[sp].d(T)[sp].d(A)[sp].d(T)[sp].d(G)[sp].d(C)[sp].d(C)[sp].d(T)[sp].d(A)[sp].d(C)[sp].[moe](A)[sp].[moe](G)[sp].[moe](C)[sp].[moe](C)[sp].[moe](T)}$$$$V2.0”, the target mRNA inhibition (HepG2, 0.07 µM) was 46% and 47%.

Turning to “RNA1{[moe](A)[sp].[moe](G)[sp].[moe](G)[sp].d(T)[sp].d(G)[sp].d(A)[sp].d(A)[sp].d(G)[sp].d(C)[sp].d(G)[sp].d(A)[sp].d(A)[sp].[moe](G)[sp].[moe](T)[sp].[moe](G)[sp].[moe](C)}$$$$V2.0”, where the note is “HepG2, 0.07 µM”, the target mRNA inhibition was 68% and 58%.

On to “RNA1{[moe](G)[sp].[moe](T)[sp].[moe](G)[sp].[moe](A)[sp].d(A)[sp].d(G)[sp].d(C)[sp].d(G)[sp].d(A)[sp].d(A)[sp].d(G)[sp].d(T)[sp].d(G)[sp].[moe](C)[sp].[moe](A)[sp].[moe](C)[sp].[moe](A)}$$$$V2.0”, for which, under “HepG2, 0.07 µM”, the target mRNA inhibition is 72% and 62%.

For “RNA1{[moe](T)[sp].[moe](C)[sp].d(C)[sp].d(G)[sp].d(C)[sp].d(A)[sp].d(G)[sp].d(T)[sp].d(A)[sp].d(T)[sp].d(G)[sp].[moe](G)[sp].[moe](A)[sp].[moe](T)[sp].[moe](C)[sp].[moe](G)[sp].[moe](G)}$$$$V2.0”, the target mRNA inhibition (HepG2, 0.07 µM) is 74% and 70%.

Regarding “RNA1{[moe](C)[sp].[moe](C)[sp].[moe](A)[sp].d(A)[sp].d(T)[sp].d(T)[sp].d(T)[sp].d(A)[sp].d(T)[sp].d(G)[sp].d(C)[sp].d(C)[sp].d(T)[sp].[cEt](A)[sp].[cEt](C)[sp].[cEt](A)}$$$$V2.0”, the target mRNA inhibition (HepG2, 0.07 µM) was 37% and 34%.

On to “RNA1{[moe](G)[sp].[moe](T)[sp].d(G)[sp].d(A)[sp].d(A)[sp].d(G)[sp].d(C)[sp].d(G)[sp].d(A)[sp].d(A)[sp].d(G)[sp].[moe](T)[sp].[moe](G)[sp].[moe](C)[sp].[moe](A)[sp].[moe](C)}$$$$V2.0”, for which the target mRNA inhibition (HepG2, 0.07 µM) is 68% and 60%.

Turning to “RNA1{[moe](G)[sp].[moe](G)[sp].[moe](T)[sp].[moe](G)[sp].[moe](A)[sp].d(A)[sp].d(G)[sp].d(C)[sp].d(G)[sp].d(A)[sp].d(A)[sp].d(G)[sp].d(T)[sp].d(G)[sp].[moe](C)[sp].[moe](A)[sp].[moe](C)}$$$$V2.0”, under “HepG2, 0.07 µM”, the target mRNA inhibition is 64% and 66%.

On to “RNA1{[moe](G)[sp].[cEt](G)[sp].[cEt](C)[sp].d(A)[sp].d(C)[sp].d(A)[sp].d(G)[sp].d(C)[sp].d(T)[sp].d(T)[sp].d(G)[sp].d(G)[sp].d(A)[sp].[cEt](G)[sp].[cEt](G)[sp].[moe](C)}$$$$V2.0”, for which the target mRNA inhibition (HepG2, 0.07 µM) is 36% and 39%.

Regarding “RNA1{[moe](C)[sp].[cEt](T)[sp].[cEt](A)[sp].d(G)[sp].d(T)[sp].d(A)[sp].d(A)[sp].d(A)[sp].d(C)[sp].d(T)[sp].d(G)[sp].d(A)[sp].d(G)[sp].[cEt](C)[sp].[cEt](C)[sp].[moe](A)}$$$$V2.0”, the target mRNA inhibition was 33% (HepG2, 0.0092593 µM); 49% (HepG2, 0.0277778 µM); 76% and 71% (HepG2, 0.07 µM); 71% (HepG2, 0.0833333 µM); 88% (HepG2, 0.25 µM).

Consider “RNA1{[moe](C)[sp].[cEt](A)[sp].[cEt](C)[sp].d(T)[sp].d(A)[sp].d(G)[sp].d(T)[sp].d(A)[sp].d(A)[sp].d(A)[sp].d(C)[sp].d(T)[sp].d(G)[sp].[cEt](A)[sp].[cEt](G)[sp].[moe](C)}$$$$V2.0”, for which the target mRNA inhibition (HepG2, 0.07 µM) is 73% and 71%.

On to “RNA1{[moe](A)[sp].[moe](C)[sp].d(T)[sp].d(G)[sp].d(G)[sp].d(A)[sp].d(G)[sp].d(C)[sp].d(C)[sp].d(A)[sp].d(C)[sp].[moe](C)[sp].[moe](A)[sp].[moe](G)[sp].[moe](C)[sp].[moe](A)[sp].[moe](G)}$$$$V2.0”, for which the target mRNA inhibition (HepG2, 0.07 µM) was 70% and 61%.
